Laboratory results published in article PMC11458808, “Identification and development of a series of disubstituted piperazines for the treatment of Chagas disease” (European Journal of Medicinal Chemistry, 2022).
≈ marks a conversion by molar mass, not a printed value. Read-outs that look alike come from different tables or passages of the source.

Assays:
[1] = ChromLogD pH7.4 (chromatographic hydrophobicity index); assay type: physicochemical; settings: pH 7.4, CHIpH7.4 × 0.0857–2; for chromatographic logD: read-out: ChromlogDpH7.4
[2] = Intrinsic clearance in mouse liver microsomes; assay type: in vitro ADME; settings: for Mouse CLi: mouse liver microsomal intrinsic clearance
Description: 2.2 Intrinsic clearance: This assay was conducted as previously described in [5].

[3] = tested on: intracellular T. cruzi X10/7 A1 amastigotes; assay: Intracellular T. cruzi assay; assay type: cell-based, Trypanosoma cruzi; settings: for EC50: Trypanosoma cruzi, read-out: T. cruzi (pEC50) (converted); for Activity in the intracellular T. cruzi assay (in words): purified compound
Description: 1.1 Intracellular T. cruzi assay: Potency against intracellular T. cruzi X10/7 A1 amastigotes was determined as described previously with as sole modification that the compound treatment duration was increased from 72h to 96h.

[4] = Aqueous (kinetic) solubility by CAD; assay type: physicochemical; settings: kinetic solubility measured by CAD
Description: 2.1 Aqueous solubility: This assay was conducted as previously described in [4].

[5] = potency against intracellular T. cruzi amastigotes, at least three independent replicates, standard deviations ≤0.2

| Structure (SMILES) | chromatographic logD [1] | Mouse CLi [2] [mL/min/g] | solubility [4] [µM] | Clearance (mouse liver microsomal) [2] [mL/min/g] | ChromlogDpH7.4 [1] | Clearance (mouse liver microsomal) ([2]; mouse, microsomes) [mL/min/g] | T. cruzi (pEC50) [3, 5] | EC50 [3, 5] [µM] | Activity in the intracellular T. cruzi assay (in words) [3] |
| --- | --- | --- | --- | --- | --- | --- | --- | --- | --- |
| COc1ccc(S(=O)(=O)Nc2ccc(CN3CCN(C(=O)C4CCCN(C)C4)CC3)cc2)cc1 (centres unmarked) [Compound 20, 4-methoxy-N-(4-((4-(1-methylpiperidine-3-carbonyl)piperazin-1-yl)methyl)phenyl)benzenesulfonamide] | 2.3 | 1.5 | ≥ 526 | – | – | – | – | > 50.1 | – |
| Cc1ccc(S(=O)(=O)Nc2ccc(CN3CCC(NC(=O)c4cccc(Cl)c4)CC3)cc2)cc1 [Compound 37, 3-chloro-N-(1-(4-((4-methylphenyl)sulfonamido)benzyl)piperidin-4-yl)benzamide] | 5.3 | 37 | 42 (≈ 20.9 µg/mL) | – | – | – | – | 3.16 | – |
| COc1ccc(S(=O)(=O)Nc2ccc(CN3CCN(C(=O)C4CN(C(C)=O)C4)CC3)cc2)cc1 [Compound 21, N-(4-((4-(1-acetylazetidine-3-carbonyl)piperazin-1-yl)methyl)phenyl)-4-methoxybenzenesulfonamide] | 2.6 | 1.0 | ≥ 511 | – | – | – | – | > 50.1 | – |
| O=C(c1cccc(Cl)c1)N1CCN(Cc2ccc(NS(=O)(=O)c3ccccc3)cc2)CC1 [Compound 3, N-(4-((4-(3-chlorobenzoyl)piperazin-1-yl)methyl)phenyl)benzenesulfonamide] | 5.5 | >50 | 67 (≈ 31.5 µg/mL) | – | – | – | – | 1.58 | – |
| CC#CC(=O)N1CCN(Cc2ccc(NS(=O)(=O)c3ccc(C)cc3)cc2)CC1 [Compound 26, N-(4-((4-(but-2-ynoyl)piperazin-1-yl)methyl)phenyl)-4-methylbenzenesulfonamide] | 4.4 | >50 | 367 (≈ 151 µg/mL) | – | – | – | – | > 50.1 | inactive |
| O=C(c1cccc(Cl)c1)N1CCN(Cc2ccc(NS(=O)(=O)c3ccc4c(c3)OCO4)cc2)CC1 [Compound 6, N-(4-((4-(3-chlorobenzoyl)piperazin-1-yl)methyl)phenyl)benzo[d][1,3]dioxole-5-sulfonamide] | 5.2 | >50 | 33 (≈ 17 µg/mL) | – | – | – | – | 0.158 | – |
| CS(=O)(=O)Nc1ccc(CN2CCN(C(=O)c3cccc(Cl)c3)CC2)cc1 [Compound 2, N-(4-((4-(3-chlorobenzoyl)piperazin-1-yl)methyl)phenyl)methanesulfonamide] | 4 | 2.6 | ≥ 470 | – | – | – | – | > 50.1 | complete loss of potency |
| Cc1ccc(S(=O)(=O)Nc2ccc(CN[C@H]3CCN(C(=O)c4cccc(Cl)c4)C3)cc2)cc1 [Compound 31, (S)-N-(4-(((1-(3-chlorobenzoyl)pyrrolidin-3-yl)amino)methyl)phenyl)-4-methylbenzenesulfonamide] | 4.9 | >50 | 72 (≈ 34.8 µg/mL) | – | – | – | – | 10 | – |
| COc1ccc(S(=O)(=O)Nc2ccc(CN3CCN(C(=O)c4cc(C(F)(F)F)n[nH]4)CC3)cc2)cc1 [Compound 17, 4-methoxy-N-(4-((4-(5-(trifluoromethyl)-1H-pyrazole-3-carbonyl)piperazin-1-yl)methyl)phenyl)benzenesulfonamide] | 4.9 | 6.4 | 122 (≈ 63.9 µg/mL) | – | – | – | – | 6.31 | – |
| COc1ccc(S(=O)(=O)Nc2ccc(Cn3cc4c(n3)CN(C(=O)c3cccc(Cl)c3)C4)cc2)cc1 [Compound 29] | – | 12 | 19 (≈ 9.94 µg/mL) | – | 5.0 | 12 | 4.9 | – | – |
| CN1CCN(S(=O)(=O)Nc2ccc(CN3CCN(C(=O)c4cccc(Cl)c4)CC3)cc2)CC1 [Compound 9, N-(4-((4-(3-chlorobenzoyl)piperazin-1-yl)methyl)phenyl)-4-methylpiperazine-1-sulfonamide] | 4.1 | 32 | ≥ 430 | – | – | – | – | 15.8 | – |

The next lines start with results.

| chromatographic logD [1] | Mouse CLi [2] [mL/min/g] | solubility [4] [µM] | Clearance (mouse liver microsomal) [2] [mL/min/g] | ChromlogDpH7.4 [1] | Clearance (mouse liver microsomal) ([2]; mouse, microsomes) [mL/min/g] | T. cruzi (pEC50) [3, 5] | Structure (SMILES) | EC50 [3, 5] [µM] | Activity in the intracellular T. cruzi assay (in words) [3] |
| --- | --- | --- | --- | --- | --- | --- | --- | --- | --- |
| 2.9 | 1.5 | ≥ 474 | – | – | – | – | COc1ccc(S(=O)(=O)Nc2cnc(CN3CCN(C(=O)c4cccc(Cl)c4)CC3)nc2)cc1 [Compound 43, N-(2-((4-(3-chlorobenzoyl)piperazin-1-yl)methyl)pyrimidin-5-yl)-4-methoxybenzenesulfonamide] | > 50.1 | lacked any activity |
| 5.6 | >50 | 43 (≈ 21.5 µg/mL) | > 50 | – | – | – | COc1ccc(S(=O)(=O)Nc2ccc(CN3CCN(C(=O)c4cccc(Cl)c4)CC3)cc2)cc1 [Compound 4, N-(4-((4-(3-chlorobenzoyl)piperazin-1-yl)methyl)phenyl)-4-methoxybenzenesulfonamide] | 0.501 | – |
| 5.2 | >50 | 27 (≈ 14.3 µg/mL) | – | – | – | – | COc1ccc(S(=O)(=O)Nc2ccc(CN3CCN(C(=O)c4cc(Cl)ccc4OC)CC3)cc2)cc1 [Compound 14, N-(4-((4-(5-chloro-2-methoxybenzoyl)piperazin-1-yl)methyl)phenyl)-4-methoxybenzenesulfonamide] | 2 | – |
| 1.9 | 0.6 | ≥ 404 | – | – | – | – | COc1ccc(S(=O)(=O)Nc2nnc(CN3CCN(C(=O)c4cccc(Cl)c4)CC3)o2)cc1 [Compound 41, N-[5-[[4-(3-chlorobenzoyl)piperazin-1-yl]methyl]-1,3,4-oxadiazol-2-yl]-4-methoxy-benzenesulfonamide] | > 50.1 | inactive |
| 4.3 | >50 | 171 (≈ 85.7 µg/mL) | – | – | – | – | COc1ccc(S(=O)(=O)Nc2ccc(CN3CCN(C(=O)c4cncc(Cl)c4)CC3)cc2)cc1 [Compound 16, N-(4-((4-(5-chloronicotinoyl)piperazin-1-yl)methyl)phenyl)-4-methoxybenzenesulfonamide] | 1 | – |
| 4.8 | >50 | 76 (≈ 36.8 µg/mL) | – | – | – | – | COc1ccc(S(=O)(=O)Nc2ccc(CN3CCN(C(=O)c4cccc(F)c4)CC3)cc2)cc1 [Compound 11, N-(4-((4-(3-fluorobenzoyl)piperazin-1-yl)methyl)phenyl)-4-methoxybenzenesulfonamide] | 0.631 | – |
| 3.1 | 1.0 | ≥ 345 | – | – | – | – | COc1ccc(S(=O)(=O)Nc2ncc(CN3CCN(C(=O)c4cccc(Cl)c4)CC3)cn2)cc1 [Compound 42, N-(5-((4-(3-chlorobenzoyl)piperazin-1-yl)methyl)pyrimidin-2-yl)-4-methoxybenzenesulfonamide] | > 50.1 | lacked any activity |
| 4.5 | 39 | ≥ 373 | – | – | – | – | COc1ccc(S(=O)(=O)Nc2ccc(CN3CCN(C(=O)c4cccc(Cl)c4)CC3)nc2)cc1 [Compound 44, N-(6-((4-(3-chlorobenzoyl)piperazin-1-yl)methyl)pyridin-3-yl)-4-methoxybenzenesulfonamide] | 7.94 | – |
